Laboratory results as given in patent US12492222B2, “Lipophilic enantiomers of desacetylglucosamine muramyl dipeptide with anti-inflammatory and growth promoting activity” (Nutrivert Inc., priority 2020, dated 2025).
Peptide text beside a SMILES is read from it.

Columns and labels:
broiler chickens = test: Growth rate and feed conversion in broiler chickens fed supplemented feed; assay type: in vivo; settings: for feed conversion rate at constant body weight gain: LDPP 0.2 mg/kg feed, bacitracin 50 mg/kg feed
Description: The objective of this experiment was to evaluate if supplementation of feed with L-lactate-D-alanine-L-glutamine palmityl ester (LDPP) at 0.2 mg/kg feed increases the growth rate and/or improves the feed conversion in broiler chickens, i.e., if it promotes growth by making broiler chickens grow faster and/or require less feed for the same amount of gain in body weight. A secondary objective was to compare the effect of LDPP to that of bacitracin, an industry-standard growth promoting antibiotic.
Freshly hatched female Ross 708 broiler chickens were housed for as single flock for 21 days on a floor pen with used bedding. All chickens received crumbled untreated standard Aviagen 708 starter and grower feeds during this time, with 80% recommended crude protein and without anti-coccidial supplement. After 3 weeks, the chickens were grouped into 38 replicate floor pens of 25 chickens with fresh bedding. Chickens were fed for 24 days from day 21 through termination on day 44 standard crumbled finisher Aviagen 708 finisher feed with 100% protein and 0.0125% amprolium anti-coccidial inclusion. Feed and water were available ad libitum throughout the trial. Thirteen pens each were assigned to untreated controls (feed without supplement) and LDPP-treatment (0.2 mg LDPP/kg feed), and 12 pens were assigned to bacitracin treatment (50 mg bacitracin/kg feed). The experimental unit was the pen rather than individual chickens. Pen weights of chickens were determined on day 21 and 44. Finisher feed uptake was be recorded, and on day 44 residual feed was determined, and the experiment was terminated.
For constant time analyses of the complete 24-day duration of the feeding experiment, the overall (true) feed conversion for each treatment group was determined by dividing total consumed feed by total weight gains of all pens of each treatment group.
For constant body weight gain analyses, the time on feed of the bacitracin and LDPP treated groups was modeled to match the weight gain of the untreated control group. Based on the closely matching body weights and weight gains of standard female Ross 708 broilers, body weight gains per chicken on the last day 44 of the experiment were calculated as the 0.04781 fraction of pen body weight gain day 21-44/surviving chickens per pen. […] Similarly, feed consumption per chicken on day 44 was calculated as the 0.05867 fraction of pen feed uptake day 21-44/surviving chickens per pen. Mean feed uptake per treatment group was then calculated by subtracting the previously found fractional daily feed uptake from each pen.
Body weight gain and feed consumption data were analyzed by one-way ANOVA and Tukey […] connection for multiple comparisons. Group differences in feed conversion rates were evaluated from pen FCR data by non-parametric Mann Whitney U test.

nursery pigs = test: Growth rate and feed conversion in freshly weaned nursery pigs fed supplemented feed; assay type: in vivo; settings: 0.2 mg/kg feed
Description: The objective of this experiment was to evaluate if supplementation of feed with L-lactate-D-alanine-L-glutamine palmityl ester (LDPP) at 0.2 mg/kg feed increases the growth rate and/or improves the feed conversion in freshly weaned nursery pigs.
Male pigs (barrows) were used in this study. Pigs were weaned at approximately 3 weeks of age, transferred to the nursery, and randomly allotted to 24 nursery pens with 4 pigs per pen. One of 2 dietary treatments, untreated controls (feed without supplement) or LDPP-treatment (0.2 mg LDPP/kg feed), was assigned to each pen, such that 12 pens of 4 pigs were used to evaluate the effect of each diet. Premixes of the treatment compounds were added at 0.1% to mixed diets, which were then pelleted. Phase 1 diet was fed at 6 lb/pig from day 0 to approximately day 8 post-weaning. On day 8 post-weaning, pigs were switched to 12 lb/pig Phase 2 diet which expired approximately on day 18. Once the Phase 2 diet had been consumed, pigs were switched to Phase 3 diet and maintained until termination of the study on day 42. No antibiotics were added to any diet. Diets were formulated to meet or exceed all the nutrient requirements based on the 2012 NRC specifications. Pigs received diets and water ad libitum. Pigs were weighed individually on days 0 and 42 of the experiment. Feed intake per pen was monitored for the weigh period. Although individual pig weights were obtained, the pen was the experimental unit. On day 42, the study was terminated and untreated pigs were retained in the food chain while the treatment pigs were euthanized.
Pen data were converted into individual pig data by dividing by the number of pigs. For three pens in which pigs were euthanized, a time-fractional pig number was used. Body weight gain and calculated feed consumption data were analyzed by pairwise T-test. The overall (true) feed conversion for each treatment was determined by dividing total consumed feed by total weight gains of all pens of each treatment. Treatment differences in feed conversion were statistically evaluated by non-parametric Mann Whitney U test of pen feed conversion data.
For constant body weight gain analyses, the time on feed of the LDPP treated group was modeled to match the weight gain of the untreated control group. Daily body weights and weight gains were modeled by linear interpolation between weights on days 0 and 42. […] From interpolated daily body weight data, daily feed consumption was first calculated as 5% of body weight. The sum of these daily feed uptakes was then divided by the actual weighed feed uptake of each pen, and daily feed uptakes were multiplied by this fraction to arrive at the precise weighed feed uptake per pen. These calculated daily feed uptakes were used to calculate feed uptake by changed times on feed for the LDPP treatment group. Mean feed uptake of the LDPP treatment group was then calculated by subtracting for each pen the previously found day 42 and 41 and the fractional day 40 feed uptake.
Body weight gain and feed consumption data were analyzed by one-way ANOVA and Student's T-test. Differences in feed conversion rates were evaluated from pen FCR data by non-parametric Mann Whitney U test.

[1] = modeled, 1,653 g constant weight gain

In the case of CC[C@H](C)[C@H](N)C1=N[C@H](C(=O)N[C@@H](CC(C)C)C(=O)N[C@H](CCC(=O)O)C(=O)N[C@H](C(=O)N[C@H]2CCCCNC(=O)[C@H](CC(N)=O)NC(=O)[C@@H](CC(=O)O)NC(=O)[C@H](Cc3cnc[nH]3)NC(=O)[C@@H](Cc3ccccc3)NC(=O)[C@H]([C@@H](C)CC)NC(=O)[C@@H](CCCN)NC2=O)[C@@H](C)CC)CS1 [bacitracin, reference compound] (HELM PEPTIDE1{[CC[C@H](C)[C@H](N)C1=N[C@H](C(=O)[*:2])CS1].L.[dE].I.K.[NCCC[C@@H](N[*:1])C(=O)[*:2]].I.[dF].H.[dD].N}$PEPTIDE1,PEPTIDE1,5:R3-11:R2$$$V2.0), the “feed conversion rate at constant body weight gain” value (broiler chickens; [1]) is reported as 1.827.
CCCCCCCCCCCCCCCCOC(=O)[C@H](CCC(N)=O)NC(=O)[C@@H](C)NC(=O)[C@H](C)O [LDPP, hexadecyl (2S)-5-amino-2-[[(2R)-2-[[(2S)-2-hydroxypropanoyl]amino]propanoyl]amino]-5-oxo-pentanoate] was tested, and the “feed conversion rate at constant time” value (broiler chickens; 0.2 mg/kg feed, 24 days, total consumed feed / total weight gain, untreated 1.818) was 1.805, the “morbidity and mortality rates between groups” value (broiler chickens; 0.2 mg/kg feed, day 21-44) was “did not differ significantly” and the “body weight gain per chicken” value (broiler chickens; 0.2 mg/kg feed, day 21-44 (24 days constant time)) was 1,725 g. The “increase of weight gain versus untreated control chickens” value (broiler chickens; 0.2 mg/kg feed, day 21-44 (24 days constant time), control 1,653 g) was 4.4%, the “improvement of feed conversion rate at constant body weight gain versus untreated” value (broiler chickens; 0.2 mg/kg feed, modeled constant weight gain) was 1.7% and the “time on feed required for weight gain identical to untreated controls” value (broiler chickens; 0.2 mg/kg feed, modeled, 1,653 g constant weight gain, controls 24 days) was 23.13 days. The “feed conversion rate at constant body weight gain” value (broiler chickens; [1]) was 1.787, the “improvement of feed conversion rate at constant time versus untreated” value (nursery pigs; 42 days) was 3.8% and the “feed conversion rate at constant time” value (nursery pigs; 42 days, total consumed feed / total weight gain, untreated 1.479) was 1.423. The “morbidity and mortality rates between groups” value (nursery pigs; day 0-42) was “did not differ significantly”, the “body weight gain per pig” value (nursery pigs; day 0-42 (constant time)) was 23.826 kg and the “increase of weight gain versus untreated nursery pigs” value (nursery pigs; day 0-42 (constant time), control 22.076 kg) was 7.9%. For the same compound, the “improvement of feed conversion rate at constant body weight gain versus untreated” value (nursery pigs; modeled constant weight gain) was 5.5%, the “more rapid growth compared to controls” value (nursery pigs; modeled constant weight gain) was 2.1 days and the “feed conversion rate at constant body weight gain” value (nursery pigs; modeled, 22.076 kg constant weight gain) was 1.396. For the same compound, the “time on feed required for weight gain identical to untreated controls” value (nursery pigs; modeled, 22.076 kg constant weight gain, controls 42 days) was 39.921 days.
